Measured values: ChEMBL document CHEMBL1124056, “Derivatives of the muscarinic agent N-methyl-N-(1-methyl-4-pyrrolidino-2-butynyl)acetamide” (J Med Chem, 1988)

These compounds were tested against Muscarinic acetylcholine receptor (assay: Equilibrium dissociation constant muscarinic receptor complex, measured in guinea pig ileum). Conditions: not given.
Format: functional, tissue-based, Cavia porcellus

SMILES | Kd [µM]
CCN(CC)CC#CCN(C(C)=O)C(C)=O | 7.2
CN(C)CC#CCN1C(=O)CCC1=O | 208
O=C1CCC(=O)N1CC#CCN1CCCC1 | 5
CC(=O)N(CC#CCN1CCCC1)C(C)=O | 0.44
CC(=O)N(CC#CCN(C)C)C(C)=O | 65.6
CC(=O)N(CC#CCN1CCCC1)S(C)(=O)=O | 17.9
CS(=O)(=O)N(CC#CCN1CCCC1)S(C)(=O)=O | 15.9
CN(CC#CCN1CCCC1)C(=O)C(F)(F)F | 15.6
CC(=O)N(CC#CC[N+](C)(C)C)C(C)=O | 8.2
CN(CC#CCN1CCCC1)S(C)(=O)=O | 68
CC(=O)N(C)CC#CCN1CCCC1 | 2.2

Next, values leading:

Kd [µM] | SMILES
8.6 | CC(=O)N(C(C)=O)C(C)C#CC[N+](C)(C)C (configuration not stated)
0.24 | CC(=O)N(C)C(C)C#CCN1CCCC1 (configuration not stated)
91.9 | CC(C#CC[N+](C)(C)C)N(C)C(=O)C(F)(F)F (configuration not stated)
0.57 | CC(C#CCN1CCCC1)N(C)C(=O)C(F)(F)F (configuration not stated)
3.1 | CC(=O)N(C(C)C#CCN1CCCC1)S(C)(=O)=O (configuration not stated)
21.6 | CC(=O)N(C(C)=O)C(C)C#CCN(C)C (configuration not stated)
0.15 | CC(C#CCN1CCCC1)N1C(=O)CCC1=O (configuration not stated)
95.4 | CC(C#CCN(C)C)N(C)C(=O)C(F)(F)F (configuration not stated)
5.4 | CC(C#CCN1CCCC1)N(S(C)(=O)=O)S(C)(=O)=O (configuration not stated)
0.28 | CC(=O)N(C(C)=O)C(C)C#CCN1CCCC1 (configuration not stated)
13 | CC(C#CCN1CCCC1)N(C)S(C)(=O)=O (configuration not stated)
1.6 | CCN(CC)CC#CC(C)N(C(C)=O)C(C)=O (configuration not stated)

Organism: Cavia porcellus
Experiment: Efficacy relative to that of carbachol, measured in guinea pig ileum
Format: functional
Conditions: not given

SMILES | Relative efficacy
CC(=O)N(C(C)=O)C(C)C#CC[N+](C)(C)C (configuration not stated) | 0.055
CC(=O)N(C)C(C)C#CCN1CCCC1 (configuration not stated) | 0.013
CC(C#CC[N+](C)(C)C)N(C)C(=O)C(F)(F)F (configuration not stated) | 0.026
CN(C)CC#CCN1C(=O)CCC1=O | 0.35
CC(=O)N(C(C)=O)C(C)C#CCN(C)C (configuration not stated) | 0.03
O=C1CCC(=O)N1CC#CCN1CCCC1 | 0.027
CC(=O)N(CC#CCN(C)C)C(C)=O | 0.013
CN(CC#CCN1CCCC1)C(=O)C(F)(F)F | 0.003
CC(=O)N(CC#CC[N+](C)(C)C)C(C)=O | 0.034
CC(=O)N(C)CC#CCN1CCCC1 | 0.15

Organism: Cavia porcellus
Experiment: Equipotent molar ratio relative to that of carbachol, which equals 1, in guinea pig ileum
Format: functional
Conditions: not given

SMILES | EPMR
CC(=O)N(C(C)=O)C(C)C#CC[N+](C)(C)C (configuration not stated) | 10.7
CC(C#CC[N+](C)(C)C)N(C)C(=O)C(F)(F)F (configuration not stated) | 214
CC(=O)N(C(C)=O)C(C)C#CCN(C)C (configuration not stated) | 57.9
CC(=O)N(CC#CCN(C)C)C(C)=O | 320
CN(CC#CCN1CCCC1)C(=O)C(F)(F)F | 145
C[N+](C)(C)CCOC(N)=O.[Cl-] [CARBACHOL] | 1
CC(=O)N(CC#CC[N+](C)(C)C)C(C)=O | 19.3

Organism: Cavia porcellus
Experiment: Maximum contractile response relative to that elicited by carbachol, in guinea pig ileum
Format: functional
Conditions: not given

SMILES | Emax
CC(=O)N(C(C)=O)C(C)C#CC[N+](C)(C)C (configuration not stated) | 1.01
CC(=O)N(C)C(C)C#CCN1CCCC1 (configuration not stated) | 0.83
CC(C#CC[N+](C)(C)C)N(C)C(=O)C(F)(F)F (configuration not stated) | 0.89
CC(C#CCN1CCCC1)N(C)C(=O)C(F)(F)F (configuration not stated) | 0
CCN(CC)CC#CCN(C(C)=O)C(C)=O | 0
CN(C)CC#CCN1C(=O)CCC1=O | 1.01
CC(=O)N(C(C)=O)C(C)C#CCN(C)C (configuration not stated) | 0.99
O=C1CCC(=O)N1CC#CCN1CCCC1 | 0.98
CC(=O)N(CC#CCN1CCCC1)C(C)=O | 0
CC(C#CCN(C)C)N(C)C(=O)C(F)(F)F (configuration not stated) | <0.1
CC(=O)N(CC#CCN(C)C)C(C)=O | 0.84
CN(CC#CCN1CCCC1)C(=O)C(F)(F)F | 0.16
C[N+](C)(C)CCOC(N)=O.[Cl-] [CARBACHOL] | 1
CC(=O)N(CC#CC[N+](C)(C)C)C(C)=O | 1
CC(=O)N(C(C)=O)C(C)C#CCN1CCCC1 (configuration not stated) | 0
CC(=O)N(C)CC#CCN1CCCC1 | 1.01
CCN(CC)CC#CC(C)N(C(C)=O)C(C)=O (configuration not stated) | 0

Organism: Mus musculus
Experiment: Dose required to double the dose of oxotremorine inducing a predetermined (grade 2) tremor intensity in mice; g=Agonist
Format: functional, organism-based
Conditions: filed as agonist

SMILES | Tremorolytic dose
CN(C)CC#CCN1C(=O)CCC1=O | Agonist

Organism: Mus musculus
Experiment: Dose required to double the dose of oxotremorine inducing a predetermined (grade 2) tremor intensity in mice
Format: functional
Conditions: not given

SMILES | Tremorolytic dose [µM/kg]
CC(=O)N(C)C(C)C#CCN1CCCC1 (configuration not stated) | 0.6
CC(C#CCN1CCCC1)N(C)C(=O)C(F)(F)F (configuration not stated) | 21.4
CCN(CC)CC#CCN(C(C)=O)C(C)=O | 107
CC(=O)N(C(C)C#CCN1CCCC1)S(C)(=O)=O (configuration not stated) | 99.7
CC(=O)N(C(C)=O)C(C)C#CCN(C)C (configuration not stated) | 109
O=C1CCC(=O)N1CC#CCN1CCCC1 | 23
CC(C#CCN1CCCC1)N1C(=O)CCC1=O (configuration not stated) | 1.2
CC(=O)N(CC#CCN1CCCC1)C(C)=O | 2.9
CC(C#CCN(C)C)N(C)C(=O)C(F)(F)F (configuration not stated) | >200
CC(=O)N(CC#CCN(C)C)C(C)=O | >200
CC(=O)N(CC#CCN1CCCC1)S(C)(=O)=O | >200
CS(=O)(=O)N(CC#CCN1CCCC1)S(C)(=O)=O | >200
CN(CC#CCN1CCCC1)C(=O)C(F)(F)F | 150
CC(C#CCN1CCCC1)N(S(C)(=O)=O)S(C)(=O)=O (configuration not stated) | 157
CN(CC#CCN1CCCC1)S(C)(=O)=O | 174
CC(=O)N(C(C)=O)C(C)C#CCN1CCCC1 (configuration not stated) | 3.2
CC(C#CCN1CCCC1)N(C)S(C)(=O)=O (configuration not stated) | 82
CCN(CC)CC#CC(C)N(C(C)=O)C(C)=O (configuration not stated) | 39

Organism: Cavia porcellus
Experiment: Concentration that elicits 50% of its own maximum contractile response, in guinea pig ileum
Format: functional
Conditions: not given

SMILES | EC50 [µM]
CC(=O)N(C(C)=O)C(C)C#CC[N+](C)(C)C (configuration not stated) | 1.2
CC(=O)N(C)C(C)C#CCN1CCCC1 (configuration not stated) | 0.19
CC(C#CC[N+](C)(C)C)N(C)C(=O)C(F)(F)F (configuration not stated) | 27.1
CN(C)CC#CCN1C(=O)CCC1=O | 2.5
CC(=O)N(C(C)=O)C(C)C#CCN(C)C (configuration not stated) | 5.5
O=C1CCC(=O)N1CC#CCN1CCCC1 | 1
CC(=O)N(CC#CCN(C)C)C(C)=O | 38.8
CN(CC#CCN1CCCC1)C(=O)C(F)(F)F | 16.9
C[N+](C)(C)CCOC(N)=O.[Cl-] [CARBACHOL] | 0.11
CC(=O)N(CC#CC[N+](C)(C)C)C(C)=O | 2
CC(=O)N(C)CC#CCN1CCCC1 | 0.069
